According to PubChem BioAssay AID1963835 (Molecular Pharmacology Branch, DTP, NCI, 2024):
pIC50: −log10 of the molar value. Several values for one entry are separate records, joined by “and”; a condition that tells them apart may be missing. Identical values can stand only once.

Test system: 699152-130-R-J1-PDC complex spheroid viability
Assay: Anticancer human tumor 699152-130-R-J1-PDC patient-derived pancreatic carcinoma cell line growth inhibition [POLQ]
Details: for viability, T/C: stronger effect = lower value; active = viability on the fitted dose curve at most 10% of control; inactive = the rest
Description: Multicellular complex tumor spheroid response to Polymerase (POL) inhibitors (novobiocin, ART-558, RP6685) in combination with a variety of drugs and investigational agents in selected tumor cell lines
The POL inhibitors (novobiocin, ART-558, and RP6685) were evaluated both individually and in combination with standard of care and investigational anticancer small molecules within a complex spheroid model of solid tumors. . Complex spheroids include a stromal component modeled by human endothelial cells (HUVEC) and fibroblasts modeled by human mesenchymal stem cells (MSCs). The concentration ranges selected for each drug and investigational agent were based upon clinically achievable concentrations if the clinical Cmax of the agent was known.
Compounds. The drugs and investigational agents: novobiocin (NSC847541), ART-558 (NSC835418), RP-6685 (NSC848927), peposertib (NSC802822), ceralasertib (NSC780249), elimusertib (NSC800525), camonsertib (NSC841442), AZD-1390 (NSC803789), olaparib (NSC753686), talazoparib (NSC767125), rucaparib (NSC756644), sotorasib (NSC818433), MRTX-1133 (NSC836407), SN-38 (NSC673596), topotecan (NSC609699), epotoside (NSC141540), doxorubicin (NSC123127), gemcitabine (NSC613327), 5-fluorouracil (NSC19893), paclitaxel (NSC125973), vemurafenib (NSC761431), MSA-2 (NSC828583), SN-011 (NSC837082), adavosertib (NSC754352), prexasertib (NSC758257), carboplatin (NSC241240) and oxaliplatin (NSC266046), were obtained from the National Cancer Institute (NCI) Developmental Therapeutics Program Chemical Repository (21). The FDA-approved anticancer drug set is available from the Developmental Therapeutics Program at https://dtp.cancer.gov/organization/dscb/obtaining/. […] The stock solutions were prepared in dimethyl sulfoxide (DMSO, Sigma-Aldrich, St. Louis, MO, cat. D2650), except for the platinum compounds which were prepared in saline (Quality Biological, Gaithersburg, MD, cat. 114-055-101), at 800-fold the tested concentration and stored at -70 degrees C prior to their use. All drugs and investigational agents were tested over a range starting from a high concentration at or near the clinical Cmax and decreasing in half-log increments. If the clinical Cmax for an agent had not been determined, the highest concentration tested was 10 microM, except for SN-38, which was tested at a high concentration of 1 microM.
Cell Culture. All cells were maintained in an incubator at 37 degrees C and 5% CO2 with 95% humidity. The PDC lines were cultured according to standard operating procedures established by the NCI PDMR (https://pdmr.cancer.gov). Table 3 of the manuscript, lists the cell lines along with the number of the three cell types plated to form the mct-spheroids and media for tumor cell growth. After thawing, all PDC lines, except 997537-175-T-J1-PDC and 415267-285-R-J2-PDC, were cultured in Matrigel-coated flasks prepared with a working solution of 1X Ham's F-12 nutrient mix, without supplementation (Thermo Fisher Scientific, cat. 11765054), 100 U/mL penicillin-streptomycin (Thermo Fisher Scientific, cat. 15140122), and 2.5% Matrigel (Corning Inc., Corning, NY, cat. 354248) for the first three passages. The two PDC lines 997537-175-T-J1-PDC and 415267-285-R-J2-PDC were cultured on uncoated flasks. The 857933-349-R-J2-PDC line was cultured in 6C/Colon 1B media containing advanced DMEM/F-12 (Thermo Fisher Scientific, cat. 12634028), 10 mM HEPES (Thermo Fisher Scientific, cat. 15630080), 1X GlutaMAX supplement (Thermo Fisher Scientific, cat. 35050061), 0.1 mg/mL primocin (InvivoGen, San Diego, CA, cat. ant-pm-2), 10% defined fetal bovine serum, heat inactivated (HyClone Laboratories Inc., Logan, UT, cat. SH30070.03HI), 50% L-WRN conditioned media (ATCC, cat. CRL-3276), 1.25 mM N-Acetyl-L-cysteine (Sigma-Aldrich, cat. A9165), 10 mM nicotinamide (Sigma-Aldrich, cat. N0636), 1X B-27 supplement (Thermo Fisher Scientific, cat. 17504044), 1X N-2 supplement (Thermo Fisher Scientific, cat. […]

[1] = curve of first compound, second compound 0.0316 µM
[2] = curve of first compound, second compound 0.1 µM
[3] = curve of first compound, second compound 0.316 µM
[4] = curve of first compound, second compound 1 µM
[5] = curve of first compound, second compound 3.16 µM
[6] = curve of first compound, second compound 10 µM
[7] = second compound 0.0316 µM, first compound 0.0316 µM
[8] = second compound 0.0316 µM, first compound 0.1 µM
[9] = second compound 0.0316 µM, first compound 0.316 µM
[10] = second compound 0.0316 µM, first compound 1 µM
[11] = second compound 0.0316 µM, first compound 3.16 µM
[12] = second compound 0.0316 µM, first compound 10 µM
[13] = second compound 0.1 µM, first compound 0.0316 µM
[14] = second compound 0.1 µM, first compound 0.1 µM
[15] = second compound 0.1 µM, first compound 0.316 µM
[16] = second compound 0.1 µM, first compound 1 µM
[17] = second compound 0.1 µM, first compound 3.16 µM
[18] = second compound 0.1 µM, first compound 10 µM
[19] = second compound 0.316 µM, first compound 0.0316 µM
[20] = second compound 0.316 µM, first compound 0.1 µM
[21] = second compound 0.316 µM, first compound 0.316 µM
[22] = second compound 0.316 µM, first compound 1 µM
[23] = second compound 0.316 µM, first compound 3.16 µM
[24] = second compound 0.316 µM, first compound 10 µM
[25] = second compound 1 µM, first compound 0.0316 µM
[26] = second compound 1 µM, first compound 0.1 µM
[27] = second compound 1 µM, first compound 0.316 µM
[28] = second compound 1 µM, first compound 1 µM
[29] = second compound 1 µM, first compound 3.16 µM
[30] = second compound 1 µM, first compound 10 µM
[31] = second compound 3.16 µM, first compound 0.0316 µM
[32] = second compound 3.16 µM, first compound 0.1 µM
[33] = second compound 3.16 µM, first compound 0.316 µM
[34] = second compound 3.16 µM, first compound 1 µM
[35] = second compound 3.16 µM, first compound 3.16 µM
[36] = second compound 3.16 µM, first compound 10 µM
[37] = second compound 10 µM, first compound 0.0316 µM
[38] = second compound 10 µM, first compound 0.1 µM
[39] = second compound 10 µM, first compound 0.316 µM
[40] = second compound 10 µM, first compound 1 µM
[41] = second compound 10 µM, first compound 3.16 µM
[42] = second compound 10 µM, first compound 10 µM
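Note: spheroids exposed to agents for 7 days before viability reading.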
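Throughout, for viability, T/C: percent of DMSO vehicle control viability so 100% = vehicle and 0% = no viable signal.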

Nc1ccn(C2OC(CO)C(O)C2(F)F)c(=O)n1 (stereo not drawn)
inactive: viability, T/C (compound 0.0316 µM) 68.9% and 75.2% and 66% | viability, T/C (compound 0.1 µM) 63.8% and 57.4% and 54.5% | viability, T/C (compound 0.316 µM) 54.8% and 51.7% and 52.1% | viability, T/C (compound 1 µM) 49.3% and 52.1% and 41.2% | viability, T/C (compound 3.16 µM) 44.3% and 51.1% and 40.1% | viability, T/C (compound 10 µM) 39.6% and 44.7% and 36%
6.04 and 6.10 and 6.56: pIC50 (curve of compound)

O=C(c1cc(Cc2n[nH]c(=O)c3ccccc23)ccc1F)N1CCN(C(=O)C2CC2)CC1 + Cc1cccc(N(C)C(=O)C2C(O)CCN2c2nc(C)cc(C(F)(F)F)c2C#N)c1
< 5.00: pIC50 [1] | pIC50 [2] | pIC50 [3] | pIC50 [4] | pIC50 [5] | pIC50 [6]
inactive: viability, T/C [7] 91.2% | viability, T/C [8] 96.4% | viability, T/C [9] 82.7% | viability, T/C [10] 96.1% | viability, T/C [11] 104% | viability, T/C [12] 69.6% | viability, T/C [13] 94% | viability, T/C [14] 104% | viability, T/C [15] 93.1% | viability, T/C [16] 94.8% | viability, T/C [17] 99.5% | viability, T/C [18] 75.5% | viability, T/C [19] 88.3% | viability, T/C [20] 97.1% | viability, T/C [21] 97.3% | viability, T/C [22] 111% | viability, T/C [23] 107% | viability, T/C [24] 81% | viability, T/C [25] 103% | viability, T/C [26] 94.8% | viability, T/C [27] 92.4% | viability, T/C [28] 102% | viability, T/C [29] 87.3% | viability, T/C [30] 75.7% | viability, T/C [31] 101% | viability, T/C [32] 104% | viability, T/C [33] 91.1% | viability, T/C [34] 97.1% | viability, T/C [35] 92.6% | viability, T/C [36] 72% | viability, T/C [37] 94.6% | viability, T/C [38] 90.6% | viability, T/C [39] 105% | viability, T/C [40] 84.9% | viability, T/C [41] 99.1% | viability, T/C [42] 78.9%

CC1COCCN1c1cc(C2(S(C)(=N)=O)CC2)nc(-c2ccnc3[nH]ccc23)n1 (stereo not drawn) + Cc1cccc(N(C)C(=O)C2C(O)CCN2c2nc(C)cc(C(F)(F)F)c2C#N)c1
< 5.00: pIC50 [1] | pIC50 [2] | pIC50 [3] | pIC50 [4] | pIC50 [5] | pIC50 [6]
inactive: viability, T/C [7] 102% | viability, T/C [8] 95.6% | viability, T/C [9] 90.2% | viability, T/C [10] 99.9% | viability, T/C [11] 81.4% | viability, T/C [12] 64% | viability, T/C [13] 99.8% | viability, T/C [14] 110% | viability, T/C [15] 89.5% | viability, T/C [16] 92.8% | viability, T/C [17] 75.2% | viability, T/C [18] 73.7% | viability, T/C [19] 110% | viability, T/C [20] 91.7% | viability, T/C [21] 102% | viability, T/C [22] 83.5% | viability, T/C [23] 76.5% | viability, T/C [24] 68.8% | viability, T/C [25] 107% | viability, T/C [26] 97.8% | viability, T/C [27] 97.5% | viability, T/C [28] 81.7% | viability, T/C [29] 80.2% | viability, T/C [30] 67.8% | viability, T/C [31] 102% | viability, T/C [32] 97.9% | viability, T/C [33] 99% | viability, T/C [34] 96.3% | viability, T/C [35] 77.5% | viability, T/C [36] 70.8% | viability, T/C [37] 104% | viability, T/C [38] 110% | viability, T/C [39] 103% | viability, T/C [40] 85.8% | viability, T/C [41] 95.1% | viability, T/C [42] 69.8%

O=C(Nc1ccc(O)c(NS(=O)(=O)c2ccc(F)cc2)c1)c1ccc(-c2ccccc2)cc1
< 5.00: pIC50 (curve of compound)
inactive: viability, T/C (compound 0.0316 µM) 114% and 90.3% and 92.6% | viability, T/C (compound 0.1 µM) 104% and 94.2% and 112% | viability, T/C (compound 0.316 µM) 101% and 103% (2×) | viability, T/C (compound 1 µM) 102% and 109% and 107% | viability, T/C (compound 3.16 µM) 106% and 108% and 112% | viability, T/C (compound 10 µM) 71.6% and 70% and 81.6%
